According to patent publication US8652514B2, “Antimicrobial peptides” (priority 2009, dated 2014):
Where a SMILES comes first, the peptide text is derived from it. Bridges are numbered along the chain shown (N, C = ends). [ ]: non-standard residue; d: D form. Phe(ol) = N[C@H](CO)Cc1ccccc1; Aib = CC(C)(N)C(=O)O

How the values were obtained:
Bacillus megaterium = test: Permeabilization of bacterial membranes (SYTOX-Green); assay type: cell-based; conditions: Gram-positive Bacillus megaterium, pH 7.4, measured 10 minutes after addition
Experimental: (§1) FIG. 3 presents the permeabilization of Gram-positive bacteria (Bacillus megaterium) and Gram-negative bacteria (Escherichia coli) after intended use of the Alvinellacine and two other AMPs (Cecropin originated from pork and Magainin originated from amphibian). These experiences were carried out at pH 7.4. The permeabilization of bacteria was measured 10 minutes after addition of each AMP for B. megaterium, while the same measurement was done after 120 minutes after addition of each AMP for E. coli.
(§2) The minimal inhibitory concentration (MIC) was determined according to the method of Hancock (Hancock, R. E. W. Sep. 19, 1999, posting date. [Online.] Hancock Laboratory Methods. Department of Microbiology and Immunology, University of British Columbia, British Columbia, Canada. [Antibiotics and Antimicrobial Peptides: MIC Determination by Microtitre Broth Dilution Method, last accessed September 21st.]). […]
(§3) To investigate the mode of action of Alvinellacine, we used the fluorescent dye SYTOX-Green® and either the Gram-positive Bacillus megaterium or the Gram-negative E. coli (FIG. 3). […] We also measured the pore-forming activity of Alvinellacine to further characterize its mode of action by using a minimalistic membrane system. More precisely, we monitored the dissipation of a membrane potential induced in liposomes composed of azolectin, a crude phospho lipid mixture from soy bean. […]

[1] = Pore-forming activity: dissipation of a membrane potential in azolectin liposomes
Experimental: The minimal inhibitory concentration (MIC) was determined according to the method of Hancock (Hancock, R. E. W. Sep. 19, 1999, posting date. [Online.] Hancock Laboratory Methods. Department of Microbiology and Immunology, University of British Columbia, British Columbia, Canada. [Antibiotics and Antimicrobial Peptides: MIC Determination by Microtitre Broth Dilution Method, last accessed September 21st.]). Permeabilization of bacterial membranes and pore-forming activity were assayed as previously described (Herbst, R., Ott, C., Jacobs, T., Marti, T., Marciano-Cabral, F., Leippe, M. Pore-forming polypeptides of the pathogenic protozoon Naegleria fowleri. J. Biol. Chem. 2002. 277:22353-22360).
To investigate the mode of action of Alvinellacine, we used the fluorescent dye SYTOX-Green® and either the Gram-positive Bacillus megaterium or the Gram-negative E. coli (FIG. 3). […] We also measured the pore-forming activity of Alvinellacine to further characterize its mode of action by using a minimalistic membrane system. More precisely, we monitored the dissipation of a membrane potential induced in liposomes composed of azolectin, a crude phospho lipid mixture from soy bean. Pore-forming activity was detected at final concentrations up to 0.5 nM, whereas the positive control Alamethicine gave a signal at 0.1 nM.

[2] = Permeabilization of liposomes filled with a fluorescent reagent; conditions: positive control Alamethicin
Experimental: FIG. 2 presents the ability of the Alvinellacine to create pores in liposomes, herein used to mimic bacterial membranes.
The mechanism of antibacterial activity was determined using liposomes filled with a fluorescent reagent. Liposomes consist of a bi-layer of phospholipids herein used to mimic the bacterial membrane. Permeabilization of the liposomes would result in a release of the internal compound, thus reacting with the medium and producing a fluorescent light that can be measured by spectrometry. The test is carried out with both negative and positive controls. Alamethicin, which is an antibiotic known to create pores in the bacterial membrane, is used as the positive control. The negative control is a solution of liposomes, intended for measurement of background noise (FIG. 2).

E. coli = test: Permeabilization of bacterial membranes (SYTOX-Green); assay type: cell-based, Escherichia coli; conditions: Gram-negative E. coli, pH 7.4, measured 120 minutes after addition
Experimental: as §1, §2, §3

SMILES | membrane-permeabilizing activity compared with the two positive controls (Cecropin P1, Magainin II) (Bacillus megaterium) | final concentration at which pore-forming activity was detected [1] | permeabilization of liposomes (mechanism of antibacterial activity) [2] | membrane-permeabilizing activity compared with Cecropin P1 and Magainin II (E. coli)
CSCC[C@@H]1NC(=O)[C@@H]2CSSC[C@H](NC(=O)[C@H](CCCNC(=N)N)NC(=O)[C@H]([C@@H](C)O)NC(=O)[C@H](Cc3ccc(O)cc3)NC(=O)[C@@H](NC(=O)CNC(=O)[C@@H](N)CCCNC(=N)N)CSSC[C@@H](C(=O)N[C@H](C(=O)O)[C@@H](C)O)NC(=O)[C@H](C(C)C)NC(=O)[C@H](CCCNC(=N)N)NC1=O)C(=O)N[C@@H](Cc1c[nH]c3ccccc13)C(=O)N[C@@H](CCCCN)C(=O)N[C@@H](C(C)C)C(=O)NCC(=O)N[C@@H](CCCNC(=N)N)C(=O)N[C@@H](CC(N)=O)C(=O)NCC(=O)N[C@@H](CCCNC(=N)N)C(=O)N[C@@H](C(C)C)C(=O)N2 [Alvinellacine] (H-RGCYTRCWKVGRNGRVCMRVCT-OH; disulfide 3-21, 7-17 (inferred); N-terminus and C-terminus assumed) | lower activity | up to 0.5 nM | permealibilizes the bi-layer of phospholipids | over one order of magnitude higher
CC(=O)NC(C)(C)C(=O)N1CCC[C@H]1C(=O)NC(C)(C)C(=O)N[C@@H](C)C(=O)NC(C)(C)C(=O)N[C@@H](C)C(=O)N[C@@H](CCC(N)=O)C(=O)NC(C)(C)C(=O)N[C@H](C(=O)NC(C)(C)C(=O)NCC(=O)N[C@@H](CC(C)C)C(=O)NC(C)(C)C(=O)N1CCC[C@H]1C(=O)N[C@H](C(=O)NC(C)(C)C(=O)NC(C)(C)C(=O)N[C@@H](CCC(=O)O)C(=O)N[C@@H](CCC(N)=O)C(=O)N[C@H](CO)Cc1ccccc1)C(C)C)C(C)C [Alamethicine, Alamethicin, reference compound] (Ac-[Aib]P[Aib]A[Aib]AQ[Aib]V[Aib]GL[Aib]PV[Aib][Aib]EQ[Phe(ol)]) |  | 0.1 nM |  | 
